For the experiment, the target named is T1, RIPK1 (Homo sapiens, UniProt Q13546).
T1 construct: AA 1–479, GST fusion
T1 sequence (Q13546 1-479): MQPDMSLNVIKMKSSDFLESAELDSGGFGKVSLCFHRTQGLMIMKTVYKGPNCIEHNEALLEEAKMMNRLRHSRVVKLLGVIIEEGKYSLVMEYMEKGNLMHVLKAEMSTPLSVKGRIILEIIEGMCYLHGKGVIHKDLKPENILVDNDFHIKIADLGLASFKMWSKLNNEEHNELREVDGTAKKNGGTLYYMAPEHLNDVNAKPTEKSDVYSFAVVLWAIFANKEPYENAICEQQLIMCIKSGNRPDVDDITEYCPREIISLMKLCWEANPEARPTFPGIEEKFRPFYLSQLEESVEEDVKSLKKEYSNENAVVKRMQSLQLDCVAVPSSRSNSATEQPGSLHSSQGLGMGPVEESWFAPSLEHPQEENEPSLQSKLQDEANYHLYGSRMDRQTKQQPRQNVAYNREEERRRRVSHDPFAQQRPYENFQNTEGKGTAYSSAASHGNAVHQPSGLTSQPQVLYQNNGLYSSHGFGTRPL
Description: ADP-Glo in vitro kinase assay with recombinant RIPK1 ([…] reduction at […]). It counts as biochemical. (ADP-Glo first removes unused ATP, then detects ADP through luciferase.)

With `CC(C)(C)c1cc(O)ccc1O` [TBHQ], the inhibition at 100 µM is about 60%.

By inhibition is commonly meant the share of the control response that was lost under treatment.

Values taken from PMC8280128, “Antioxidant and food additive BHA prevents TNF cytotoxicity by acting as a direct RIPK1 inhibitor” (Cell Death & Disease, 2021).
